Patent publication US11780852B2, “Methods for treating Crohn's disease using 3-((1R,3s,5S)-3-((7-((5-methyl-1H-pyrazol-3-yl)amino)-1,6-naphthyridin-5-yl)amino)-8-azabicyclo[3.2.1]octan-8-yl)propanenitrile” (priority 2015, dated 2023)
Read-outs that look alike come from different tables or passages of the source.

Key:
[1] = test system: oxazolone-induced colitis; assay: Mouse model of oxazolone-induced colitis; format: in vivo, BALB/C mice; conditions: PO, 1, 3, and/or 10 mg/kg BID (doses up to 10 mg/kg BID)
Method: Assay 7: Mouse Model of Oxazalone-Induced Colitis
Oxazolone-induced colitis is an experimental model that has a histological resemblance to human ulcerative colitis (Heller et al. Immunology, 2002, 17, 629-638). Adult BALB/C mice from Harlan were used in the assay. On day 1, animals were lightly anesthetized with isoflurane and the hairs between the shoulder were carefully removed before oxazolone (4%, 150 μL, 4:1 acetone:olive oil formulation) or vehicle solution was slowly applied for skin sensitization. Seven days after skin sensitization, the mice were fasted overnight, anesthetized with isoflurane inhalation, and a 1 mL syringe equipped with a 3.5-F catheter, filled with oxazolone solution, was inserted carefully about 4 cm into the colon of the mouse. Following insertion, 50 μL of the oxazolone solution (1%, 1:1 ethanol:water formulation) was injected very slowly (over 30 sec using an injection pump) into the colon. The catheter was removed and the mice were held vertically (head down) for 2 min to ensure that the entire oxazolone solution remained inside the colon. Drug treatment (PO, BID or TID) or vehicle was initiated a day prior to the oxazolone intrarectal (IR) challenge. Two-day post oxazolone intrarectal challenge, the Disease Activity Index (DAI) was assessed by treatment-blinded experimenters for each mouse according to the criteria score: stool consistency score (0, normal; 2, loose; 4, diarrhea), gross bleeding score (0, absence; 2, blood tinged; 4, presence), and weight loss score (0, none; 1, 1%-5%; 2, 5%-10^%; 3, 10%-20%; 4, more than 20%); DAI=average of (stool consistency score+gross bleeding score+weight loss score).
Selected compounds of the invention were tested in the assay. Efficacy in the model is evidenced by a decrease in DAI score as compared with the score from vehicle treated animals.

[2] = test system: IL-4 induced STAT6 phosphorylation in THP-1 human monocytic cells
[3] = THP-1 cells, IL-4 induced STAT6 phosphorylation

SMILES	DAI score as compared with vehicle treated animals [1]	further results
Cc1cc(Nc2cc3ncccc3c(N[C@@H]3C[C@H]4CCC[C@@H](C3)N4S(=O)(=O)N3CC(C#N)C3)n2)n[nH]1 [Example 11, 1-(((1R,3s,5S)-3-((7-((5-methyl-1H-pyrazol-3-yl)amino)-1,6-naphthyridin-5-yl)amino)-9-azabicyclo[3.3.1]nonan-9-yl)sulfonyl)azetidine-3-carbonitrile]	did not exhibit a statistically significant decrease	–
COCCS(=O)(=O)N1[C@@H]2CCC[C@H]1C[C@H](Nc1nc(Nc3cc(C)[nH]n3)cc3ncccc13)C2 [Example 4-19]	did not exhibit a statistically significant decrease	–
Cc1cc(Nc2cc3nc(CO)ccc3c(N[C@@H]3C[C@H]4CC[C@@H](C3)N4CCC#N)n2)n[nH]1 [Example 5-11]	did not exhibit a statistically significant decrease	–
Cc1cc(Nc2cc3ncccc3c(N[C@@H]3C[C@H]4CC[C@@H](C3)N4CCF)n2)n[nH]1 [Example 2, N^5-((1R,3s,5S)-8-(2-fluoroethyl)-8-azabicyclo[3.2.1]octan-3-yl)-N^7-(5-methyl-1H-pyrazol-3-yl)-1,6-naphthyridine-5,7-diamine]	statistically significant decrease	–
Cc1cc(Nc2cc3ncccc3c(N[C@@H]3C[C@H]4CC[C@@H](C3)N4S(=O)(=O)C3CC3)n2)n[nH]1 [Example 4-4]	did not exhibit a statistically significant decrease	–
Cc1cc(Nc2cc3ncccc3c(N[C@@H]3C[C@H]4CC[C@@H](C3)N4S(=O)(=O)c3cccnc3)n2)n[nH]1 [Example 3, N^7-(5-methyl-H-pyrazol-3-yl)-N-((1R,3s,5S)-8-(pyridin-3-ylsulfonyl)-8-azabicyclo[3.2.1]octan-3-yl)-1,6-naphthyridine-5,7-diamine]	statistically significant decrease	–
Cc1cc(Nc2cc3ncccc3c(N[C@@H]3C[C@H]4CCC[C@@H](C3)N4CC(=O)N(C)C)n2)n[nH]1 [Example 1-38]	statistically significant decrease	–
Cc1cc(Nc2cc3ncccc3c(N[C@@H]3C[C@H]4CC[C@@H](C3)N4S(=O)(=O)Cc3ccccc3)n2)n[nH]1 [Example 4-13]	did not exhibit a statistically significant decrease	–
Cc1cc(Nc2cc3ncccc3c(N[C@@H]3C[C@H]4CC[C@@H](C3)N4C(=O)c3ccccc3)n2)n[nH]1 [Example 2-12]	–	THP-1 IL4 pIC50 [2]: B (key: A represents a pEC50 value ≥7.5 (EC50≤32 nM); B represents a pEC50 value between 6.7 and 7.5 (EC50 between 200 nM and 32 nM); C represents a pEC50 value <6.7 (EC50>200 nM))
Cc1cc(Nc2cc3ncccc3c(N[C@@H]3C[C@H]4CCC[C@@H](C3)N4S(=O)(=O)CC3CC3)n2)n[nH]1 [Example 4-23]	did not exhibit a statistically significant decrease	–
Cc1cc(Nc2cc3ncccc3c(N[C@@H]3C[C@H]4CCC[C@@H](C3)N4C(=O)CN(C)C)n2)n[nH]1 [Example 4, 2-(Dimethylamino)-1-((1R,3s,5S)-3-((7-((5-methyl-1H-pyrazol-3-yl)amino)-1,6-naphthyridin-5-yl)amino)-9-azabicyclo[3.3.1]nonan-9-yl)ethan-1-one]	statistically significant decrease	–
COCCS(=O)(=O)N1[C@@H]2CC[C@H]1C[C@H](Nc1nc(Nc3cc(C)[nH]n3)cc3ncccc13)C2 [Example 6, N^5-((1R,3s,5S)-8-((2-methoxyethyl)sulfonyl)-8-azabicyclo[3.2.1]octan-3-yl)-N^7-(5-methyl-1H-pyrazol-3-yl)-1,6-naphthyridine-5,7-diamine]	statistically significant decrease	–
Cc1cc(Nc2cc3ncccc3c(N[C@@H]3C[C@H]4CC[C@@H](C3)N4C3CCCOC3=O)n2)n[nH]1 (some centres unmarked) [Example 1-28]	–	THP-1 IL4 pIC50 [2]: C (key: A represents a pEC50 value ≥7.5 (EC50≤32 nM); B represents a pEC50 value between 6.7 and 7.5 (EC50 between 200 nM and 32 nM); C represents a pEC50 value <6.7 (EC50>200 nM))
Cc1cc(Nc2cc3ncccc3c(NC3CC4CCCC(C3)N4C(=O)C(C)O)n2)n[nH]1 (centres unmarked) [Example 2-16]	did not exhibit a statistically significant decrease	–
Cc1cc(Nc2cc3ncccc3c(N[C@@H]3C[C@H]4CC[C@@H](C3)N4C(=O)C(F)F)n2)n[nH]1 [Example 5, 2,2-difluoro-1-((1R,3s,5S)-3-((7-((5-methyl-1H-pyrazol-3-yl)amino)-1,6-naphthyridin-5-yl)amino)-8-azabicyclo[3.2.1]octan-8-yl)ethan-1-one]	statistically significant decrease	–
Cc1cc(Nc2cc3ncccc3c(N[C@@H]3C[C@H]4CC[C@@H](C3)N4S(=O)(=O)CC(C)C)n2)n[nH]1 [Example 4-3]	did not exhibit a statistically significant decrease	–
CCOCC(=O)N1[C@@H]2CCC[C@H]1C[C@H](Nc1nc(Nc3cc(C)[nH]n3)cc3ncccc13)C2 [Example 2-17]	did not exhibit a statistically significant decrease	–
COC(=O)C1(C(=O)N2[C@@H]3CC[C@H]2C[C@H](Nc2nc(Nc4cc(C)[nH]n4)cc4ncccc24)C3)CC1 [Example 2-9]	–	THP-1 IL4 pIC50 [2, 3]: C (C represents a pEC50 value <6.7 (EC50>200 nM))
Cc1cc(Nc2cc3ncccc3c(N[C@@H]3C[C@H]4CCC[C@@H](C3)N4S(=O)(=O)c3ccccc3)n2)n[nH]1 [Example 9, N-(5-methyl-1H-pyrazol-3-yl)-N-((1R,3s,5S)-9-(phenylsulfonyl)-9-azabicyclo[3.3.1]nonan-3-yl)-1,6-naphthyridine-5,7-diamine]	did not exhibit a statistically significant decrease	–
Cc1cc(Nc2cc3ncccc3c(N[C@@H]3C[C@H]4CC[C@@H](C3)N4S(=O)(=O)N3CC(C#N)C3)n2)n[nH]1 [Example 13, 1-(((1R,3s,5S)-3-((7-((5-methyl-1H-pyrazol-3-yl)amino)-1,6-naphthyridin-5-yl)amino)-8-azabicyclo[3.2.1]octan-8-yl)sulfonyl)azetidine-3-carbonitrile]	did not exhibit a statistically significant decrease	–
Cc1cc(Nc2cc3ncccc3c(N[C@@H]3C[C@H]4CCC[C@@H](C3)N4S(=O)(=O)C3CC3)n2)n[nH]1 [Example 4-18]	did not exhibit a statistically significant decrease	–
CCC(C)C(=O)N1C2CCC1CC(Nc1nc(Nc3cc(C)[nH]n3)cc3ncccc13)C2 (centres unmarked) [Example 2-6]	did not exhibit a statistically significant decrease	–
Cc1cc(Nc2cc3ncccc3c(N[C@@H]3C[C@H]4CC[C@@H](C3)N4CC3COC(=O)O3)n2)n[nH]1 (some centres unmarked) [Example 1-30]	–	THP-1 IL4 pIC50 [2]: B (key: A represents a pEC50 value ≥7.5 (EC50≤32 nM); B represents a pEC50 value between 6.7 and 7.5 (EC50 between 200 nM and 32 nM); C represents a pEC50 value <6.7 (EC50>200 nM))
Cc1cc(Nc2cc3ncccc3c(N[C@@H]3C[C@H]4CCC[C@@H](C3)N4C(=O)Cc3ccccc3)n2)n[nH]1 [Example 2-24]	did not exhibit a statistically significant decrease	–
Cc1cc(Nc2cc3ncccc3c(N[C@H]3C[C@H]4CCC[C@@H](C3)N4C3CCOC3=O)n2)n[nH]1 (some centres unmarked) [Example 1-52]	–	THP-1 IL4 pIC50 [2, 3]: B (B represents a pEC50 value between 6.7 and 7.5 (EC50 between 200 nM and 32 nM))
Cc1cc(Nc2cc3ncccc3c(N[C@@H]3C[C@H]4CC[C@@H](C3)N4Cc3ccc(O)cc3)n2)n[nH]1 [Example 1-18]	–	THP-1 IL4 pIC50 [2]: C (key: A represents a pEC50 value ≥7.5 (EC50≤32 nM); B represents a pEC50 value between 6.7 and 7.5 (EC50 between 200 nM and 32 nM); C represents a pEC50 value <6.7 (EC50>200 nM))
Cc1cc(Nc2cc3ncccc3c(N[C@@H]3C[C@H]4CCC[C@@H](C3)N4C(=O)C(C)(C)CO)n2)n[nH]1 [Example 2-22]	did not exhibit a statistically significant decrease	–
Cc1cc(Nc2cc3ncccc3c(N[C@@H]3C[C@H]4CC[C@@H](C3)N4C(=O)c3ccncc3)n2)n[nH]1 [Example 2-13]	–	THP-1 IL4 pIC50 [2]: B (key: A represents a pEC50 value ≥7.5 (EC50≤32 nM); B represents a pEC50 value between 6.7 and 7.5 (EC50 between 200 nM and 32 nM); C represents a pEC50 value <6.7 (EC50>200 nM))
CCS(=O)(=O)N1[C@@H]2CC[C@H]1C[C@H](Nc1nc(Nc3cc(C)[nH]n3)cc3ncccc13)C2 [Example 7, N^5-((1R,3s,5S)-8-(ethylsulfonyl)-8-azabicyclo[3.2.1]octan-3-yl)-N^7-(5-methyl-1H-pyrazol-3-yl)-1,6-naphthyridine-5,7-diamine]	did not exhibit a statistically significant decrease	–
